Assay results as given in ChEMBL document CHEMBL5729039, “Macrocyclic fluorine substituted indole derivatives” (2022).

Key:
Bcl-2-like protein 1 = Bcl-2-like protein 1 (Homo sapiens, UniProt Q07817); test: (§1) Biological Assay: BCL-XL Assay: In the assay 11 different concentrations of each compound (0.1 nM, 0.33 nM, 1.1 nM, 3.8 nM, 13 nM, 44 nM, 0.15 μM, 0.51 μM, 1.7 μM, 5.9 μM and 20 μM) were typically measured as duplicates in the same microtiter plate. For that, 100-fold concentrated DMSO solutions were prepared by serial dilutions (1:3.4) of a 2 mM stock solution in a clear, 384-well microtiter plate (Greiner Bio-One, Frickenhausen, Germany). From there, 50 nl were transferred in a dark test plate (Greiner Bio-One, Frickenhausen, Germany). The assay was initiated by addition of 2 μl of a 2,5-fold concentrated His-BCL-XL solution (usually for a 1 nM end concentration in 5 μl reaction volume) in aqueous assay buffer [50 mM Tris/HCl pH 7, 100 mM sodium chloride (NaCl), 50 μM potassium fluoride (KF), 0.005% Tween-20, 2 mM DTT, 0.1% bovine gamma globulin (BGG)] to the compounds in the assay plate. This was followed by a 10-minute incubation step at 22° C. for pre-equilibration of the putative complex between His-BCL-XL and the compounds. After that, 3 μl of a 1.67-fold concentrated solution (in assay buffer) consisting of Bad BH3-derived peptide (1 nM end concentration) and TR-FRET detection reagents [1.67 nM anti-His-Eu cryptate and 1.67 nM streptavidin-XL665 (both from Cisbio Bioassays, Codolet, France)], were added.
[1] = biological target: Apoptosis regulator Bcl-2 (Homo sapiens, UniProt P10415); test: as §1, with “Biological Assay 2: BCL-2” for “Biological Assay: BCL-XL”, “concentrated His-BCL-2” for “concentrated His-BCL-XL”, “50 mM” for “50 μM”, “between His-BCL-2” for “between His-BCL-XL”
Apoptosis regulator Bcl-2, sequence (P10415 whole entry): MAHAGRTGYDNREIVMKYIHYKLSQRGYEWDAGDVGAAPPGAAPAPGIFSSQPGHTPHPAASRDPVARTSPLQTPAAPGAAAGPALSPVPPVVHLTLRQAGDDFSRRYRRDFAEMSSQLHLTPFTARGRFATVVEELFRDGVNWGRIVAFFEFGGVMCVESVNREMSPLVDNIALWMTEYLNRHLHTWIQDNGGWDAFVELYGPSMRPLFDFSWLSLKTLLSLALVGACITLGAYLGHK

Bcl-2-like protein 1, sequence (Q07817 whole entry): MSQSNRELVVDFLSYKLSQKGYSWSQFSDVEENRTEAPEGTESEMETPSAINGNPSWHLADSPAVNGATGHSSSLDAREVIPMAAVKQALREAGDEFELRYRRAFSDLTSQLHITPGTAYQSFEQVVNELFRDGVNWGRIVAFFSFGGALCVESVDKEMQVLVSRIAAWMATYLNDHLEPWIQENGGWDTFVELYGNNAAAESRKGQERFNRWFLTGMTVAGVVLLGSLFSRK

Row | SMILES | IC50 (Bcl-2-like protein 1) [µM] | IC50 [1] [µM]
1 | CCc1c2c(nn1C)COCCCCn1c(C(=O)O)c(CCCOc3cccc4ccccc34)c3ccc(F)c-2c31 | > 20 | > 20
2 | Cc1c2c(nn1C)C[N+](C)(C)CCCCn1c(C(=O)O)c(CCCOc3cccc4ccccc34)c3ccc(F)c-2c31 | > 20 | > 20
3 | Cc1c2c(nn1C)COCCCCn1c(C(=O)O)c(CCCOc3cccc4cc(F)ccc34)c3ccc(F)c-2c31 | > 20 | > 20
4 | CCc1nn(C)c2c1-c1c(F)ccc3c(CCCOc4cccc5cc(F)ccc45)c(C(=O)O)n(c13)CCCCOC2 | > 20 | > 20
5 | CCc1c2c(nn1C)COCCCCn1c(C(=O)O)c(CCCOc3ccc(F)c4ccccc34)c3ccc(F)c-2c31 | > 20 | > 20
6 | Cc1c2c(nn1C)COCCCCn1c(C(=O)O)c(CCCOc3cccc4ccccc34)c3ccc(F)c-2c31 | > 20 | > 20
